Laboratory results: PubChem BioAssay AID248 (DTP/NCI, 2004)
Several values for one entry are separate records, joined by “and”; a condition that tells them apart may be missing. Identical values can stand only once. Inconclusive results and toxic doses are left out. Cut-off read from the data, not from the text of the source: active = T/C of 150% or more; inactive = T/C below 125%.

System: L1210 leukemia ip in BDF1 mice, survival T/C
Test: NCI In Vivo Anticancer Drug Screen. Data for tumor model L1210 Leukemia (intraperitoneal) in B6D2F1 (BDF1) mice
Conditions: endpoint: mean survival time, higher = longer survival
Method in brief: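 Antitumor effect is assessed in tumor-bearing animals. Survival in the compound arm is compared with a vehicle-dosed control arm and expressed as their quotient.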

[1] = dose: 100.0 mg/kg/injection, schedule: Q01DX009 (ip), vehicle: saline
[2] = dose: 100.0 mg/kg/injection, schedule: Q01DX009 (ip), vehicle: Klucel (hydroxypropylcellulose) (HPC)
[3] = dose: 100.0 mg/kg/injection, schedule: Q04DX003 (ip), vehicle: Klucel (hydroxypropylcellulose) (HPC)
[4] = dose: 200.0 mg/kg/injection, schedule: Q04DX003 (ip), vehicle: Klucel (hydroxypropylcellulose) (HPC)
[5] = dose: 50.0 mg/kg/injection, schedule: Q01DX001 (ip), vehicle: Klucel (hydroxypropylcellulose) (HPC)
[6] = dose: 200.0 mg/kg/injection, schedule: Q01DX009 (ip), vehicle: Klucel (hydroxypropylcellulose) (HPC)
[7] = dose: 400.0 mg/kg/injection, schedule: Q01DX009 (ip), vehicle: Klucel (hydroxypropylcellulose) (HPC)
[8] = dose: 400.0 mg/kg/injection, schedule: Q04DX003 (ip), vehicle: Klucel (hydroxypropylcellulose) (HPC)
[9] = dose: 100.0 mg/kg/injection, schedule: Q01DX001 (ip), vehicle: Klucel (hydroxypropylcellulose) (HPC)
[10] = dose: 200.0 mg/kg/injection, schedule: Q01DX001 (ip), vehicle: Klucel (hydroxypropylcellulose) (HPC)
[11] = dose: 75.0 mg/kg/injection, schedule: Q01DX001 (ip), vehicle: carboxymethylcellulose (CMC)

Measured: T/C

CCOC(=O)c1ccc(NC(=O)Sc2ccccc2C)cc1
inactive: dose: 100.0 mg/kg/injection, schedule: Q04DX002 (ip), vehicle: saline 120 % of control | dose: 200.0 mg/kg/injection, schedule: Q04DX002 (ip), vehicle: saline 120 % of control | dose: 400.0 mg/kg/injection, schedule: Q04DX002 (ip), vehicle: saline 87 % of control

C[n+]1cccc2cc(NC(=O)c3ccc(C(=O)Nc4ccc5c(ccc[n+]5C)c4)cc3)ccc21
inactive: dose: 0.94 mg/kg/injection, schedule: Q01DX Z (ip), vehicle: saline 94 % of control | dose: 1.88 mg/kg/injection, schedule: Q01DX Z (ip), vehicle: saline 92 % of control | dose: 30.0 mg/kg/injection, schedule: Q01DX010 (oral), vehicle: saline 100 % of control | dose: 240.0 mg/kg/injection, schedule: Q01DX010 (oral), vehicle: saline 100 % of control

O=C(Cn1cc(F)c(=O)[nH]c1=O)c1ccco1
inactive: [1] 90 % of control | dose: 100.0 mg/kg/injection, schedule: Q04DX003 (ip), vehicle: saline 96 % of control | dose: 200.0 mg/kg/injection, schedule: Q01DX009 (ip), vehicle: saline 91 % of control | dose: 200.0 mg/kg/injection, schedule: Q04DX003 (ip), vehicle: saline 93 % of control | dose: 400.0 mg/kg/injection, schedule: Q01DX009 (ip), vehicle: saline 88 % of control | dose: 400.0 mg/kg/injection, schedule: Q04DX003 (ip), vehicle: saline 88 % of control

CNCc1ccccc1C(O)c1ccc(Cl)cc1 (stereo unspecified)
inactive: dose: 3.12 mg/kg/injection, schedule: Q01DX009 (ip), vehicle: Klucel (hydroxypropylcellulose) (HPC) 98 % of control | dose: 6.25 mg/kg/injection, schedule: Q01DX009 (ip), vehicle: Klucel (hydroxypropylcellulose) (HPC) 96 % of control | dose: 12.5 mg/kg/injection, schedule: Q01DX009 (ip), vehicle: Klucel (hydroxypropylcellulose) (HPC) 96 % of control | dose: 25.0 mg/kg/injection, schedule: Q01DX009 (ip), vehicle: Klucel (hydroxypropylcellulose) (HPC) 94 % of control | dose: 25.0 mg/kg/injection, schedule: Q04DX003 (ip), vehicle: Klucel (hydroxypropylcellulose) (HPC) 97 % of control and 98 % of control | dose: 50.0 mg/kg/injection, schedule: Q01DX009 (ip), vehicle: Klucel (hydroxypropylcellulose) (HPC) 102 % of control | dose: 50.0 mg/kg/injection, schedule: Q04DX003 (ip), vehicle: Klucel (hydroxypropylcellulose) (HPC) 94 % of control | [2] 86 % of control | [3] 104 % of control | [4] 122 % of control

CCCCCCCCCCCCCCCCSCCOC(=O)C1C2CCC(O2)C1C(=O)O (stereo unspecified)
inactive: dose: 12.5 mg/kg/injection, schedule: Q01DX001 (ip), vehicle: Klucel (hydroxypropylcellulose) (HPC) 107 % of control | dose: 25.0 mg/kg/injection, schedule: Q01DX001 (ip), vehicle: Klucel (hydroxypropylcellulose) (HPC) 101 % of control | [5] 98 % of control

COc1ccc(NC(=O)c2ccccc2Cl)cc1
inactive: [2] 97 % of control | [3] 105 % of control | [6] 95 % of control | [4] 97 % of control | [7] 95 % of control | [8] 96 % of control

O=C(NCCCNC(=O)Nc1ccc(C2=NCCCN2)cc1)Nc1ccc(C2=NCCCN2)cc1
inactive: dose: 10.0 mg/kg/injection, schedule: Q01DX015 (ip), vehicle: methylcellulose (MC) 103 % of control | dose: 20.0 mg/kg/injection, schedule: Q01DX015 (ip), vehicle: methylcellulose (MC) 103 % of control

COC(C)=C1c2ccccc2-c2ccccc21
inactive: [9] 98 % of control | [10] 99 % of control | dose: 400.0 mg/kg/injection, schedule: Q01DX001 (ip), vehicle: Klucel (hydroxypropylcellulose) (HPC) 94 % of control

C=CCCC1(Cc2ccccc2)C(=O)NC(=O)NC1=O
inactive: dose: 75.0 mg/kg/injection, schedule: Q01DX001 (ip), vehicle: saline 97 % of control | dose: 150.0 mg/kg/injection, schedule: Q01DX001 (ip), vehicle: saline 97 % of control

O=P(CCCl)(OCCCl)OCCCl
inactive: dose: 100.0 mg/kg/injection, schedule: Q04DX003 (ip), vehicle: saline with Tween-80 94 % of control | dose: 200.0 mg/kg/injection, schedule: Q04DX003 (ip), vehicle: saline with Tween-80 109 % of control | dose: 400.0 mg/kg/injection, schedule: Q04DX003 (ip), vehicle: saline with Tween-80 109 % of control

O=C(O)c1ccccc1CC(O)(c1ccccc1)C(O)(Cc1ccccc1C(=O)O)c1ccccc1 (stereo unspecified)
inactive: dose: 100.0 mg/kg/injection, schedule: Q01DX001 (ip), vehicle: carboxymethylcellulose (CMC) 94 % of control | dose: 200.0 mg/kg/injection, schedule: Q01DX001 (ip), vehicle: carboxymethylcellulose (CMC) 102 % of control | dose: 400.0 mg/kg/injection, schedule: Q01DX001 (ip), vehicle: carboxymethylcellulose (CMC) 96 % of control

CCCC(=O)NC(=S)Nc1ccccc1
inactive: [11] 98 % of control

Nc1nc2c(c(=O)[nH]1)N=C(CNc1ccc(C(=O)NC(CCC(=O)O)C(=O)O)cc1)CN2 (stereo unspecified)
inactive: dose: 2.0 mg/kg/injection, schedule: Q01DX009 (ip), vehicle: sodium bicarbonate 109 % of control | dose: 4.0 mg/kg/injection, schedule: Q01DX009 (ip), vehicle: sodium bicarbonate 115 % of control | dose: 8.0 mg/kg/injection, schedule: Q01DX009 (ip), vehicle: sodium bicarbonate 116 % of control | dose: 16.0 mg/kg/injection, schedule: Q01DX009 (ip), vehicle: sodium bicarbonate 115 % of control

CS(=O)(=O)OCC1CCCCO1 (stereo unspecified)
inactive: [2] 91 % of control | [3] 101 % of control | [6] 102 % of control | [4] 102 % of control | [7] 106 % of control | [8] 111 % of control

CCCCc1ccncc1
inactive: dose: 5.0 mg/kg/injection, schedule: Q01DX001 (ip), vehicle: saline 102 % of control | dose: 10.0 mg/kg/injection, schedule: Q01DX001 (ip), vehicle: saline 100 % of control | dose: 20.0 mg/kg/injection, schedule: Q01DX001 (ip), vehicle: saline 100 % of control | dose: 40.0 mg/kg/injection, schedule: Q01DX001 (ip), vehicle: saline 90 % of control | dose: 80.0 mg/kg/injection, schedule: Q01DX001 (ip), vehicle: saline 93 % of control | dose: 100.0 mg/kg/injection, schedule: Q01DX001 (ip), vehicle: saline 98 % of control

CCOC(=O)C=C1CCP(C)CC1 (stereo unspecified)
inactive: [11] 103 % of control | dose: 150.0 mg/kg/injection, schedule: Q01DX001 (ip), vehicle: carboxymethylcellulose (CMC) 94 % of control

CN(C)C1C2(C)CCC(C2)C1(C)C (stereo unspecified)
inactive: dose: 5.0 mg/kg/injection, schedule: Q01DX001 (ip), vehicle: carboxymethylcellulose (CMC) 101 % of control | dose: 10.0 mg/kg/injection, schedule: Q01DX001 (ip), vehicle: carboxymethylcellulose (CMC) 98 % of control | dose: 20.0 mg/kg/injection, schedule: Q01DX001 (ip), vehicle: carboxymethylcellulose (CMC) 98 % of control | dose: 40.0 mg/kg/injection, schedule: Q01DX001 (ip), vehicle: carboxymethylcellulose (CMC) 95 % of control

CC(C)(N)CNC(C)(C)CO
inactive: dose: 50.0 mg/kg/injection, schedule: Q01DX009 (ip), vehicle: saline 102 % of control | [1] 102 % of control

OC1C2CC3C1C3C2O (stereo unspecified)
inactive: dose: 100.0 mg/kg/injection, schedule: Q01DX009 (ip), vehicle: saline with Tween-80 94 % of control | dose: 200.0 mg/kg/injection, schedule: Q01DX009 (ip), vehicle: saline with Tween-80 94 % of control | dose: 400.0 mg/kg/injection, schedule: Q01DX009 (ip), vehicle: saline with Tween-80 97 % of control

CCOC(=O)/C=C/c1nc(N)[nH]c(=O)c1CCCCc1ccccc1
inactive: [5] 122 % of control | [9] 119 % of control | [10] 111 % of control
